The record followed here is the supplement of paper PMC10627819.

For test [1], the system named is S. pneumoniae D39V. Nature of the test: fitness (endpoint OD595 vs no drug) (fraction); higher = more growth. The method, boiled down: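 Fitness expresses the optical density reached at the stationary-phase transition as a fraction of the robust mean of no-drug control wells. It is capped at 1. Measurements were OD595 every 30 min for 14 h at 37 °C after inoculation of 384-well plates at OD595 0.01 (30 µl, or 55 µl for S. pneumoniae), minus the first reading.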

Another test has as its system B. subtilis 168. Nature of the test: Bliss interaction score (quartile over a dose matrix) (fitness difference); higher = more antagonism (negative = synergy). In short, it runs like this: (§1)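 Fitness is OD595 at stationary-phase entry relative to the plate's robust no-drug mean, capped at 1. Single-drug fitness was inferred from combinations. The Bliss score is observed minus product-expected fitness, summarised by quartiles over technical, biological and donor/recipient replicates.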

The subject of a further test is S. aureus DSM 20231. The test is described as above. In short, it runs like this: as §1
Another test deals with S. aureus Newman. The test is described as above. The method, boiled down:
as §1

Test [2] has as its system S. pneumoniae D39V. The description is as above. The method, boiled down:
as §1

Each structure is given as a SMILES string.
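Wherever Bliss interaction score (quartile over a dose matrix) is given: first quartile when negative (synergy) and third quartile when positive (antagonism).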

On to `COc1cccc2c1C(=O)c1c(O)c3c(c(O)c1C2=O)C[C@@](O)(C(=O)CO)C[C@@H]3O[C@H]1C[C@H](N)[C@H](O)[C@H](C)O1` [Doxorubicin] + CO[C@H]1/C=C/O[C@@]2(C)Oc3c(C)c(O)c4c(O)c(c(/C=N/N5CCN(C)CC5)c(O)c4c3C2=O)NC(=O)/C(C)=C\C=C\[C@H](C)[C@H](O)[C@@H](C)[C@@H](O)[C@@H](C)[C@H](OC(C)=O)[C@@H]1C [Rifampicin], for which the fitness in the test with S. pneumoniae D39V [1] (first compound 0.25 µg/mL, partner 0.025 µg/mL) came out at 0.985; in the test with S. pneumoniae D39V [1] (first compound 0.25 µg/mL, partner 0.1 µg/mL) it was 0.323; in the test with S. pneumoniae D39V [1] (first compound 0.25 µg/mL, partner 0.2 µg/mL, one replicate) it was 0; in the test with S. pneumoniae D39V [1] (first compound 0.5 µg/mL, partner 0.025 µg/mL), 0.991; in the test with S. pneumoniae D39V [1] (first compound 0.5 µg/mL, partner 0.05 µg/mL), 0.94; in the test with S. pneumoniae D39V [1] (first compound 0.5 µg/mL, partner 0.1 µg/mL), 0.397. Moreover, the fitness was 0 in the test on S. pneumoniae D39V [1] (first compound 0.5 µg/mL, partner 0.2 µg/mL, one replicate); 0.866 in the test with S. pneumoniae D39V [1] (first compound 1 µg/mL, partner 0.025 µg/mL); 0.318 in the test on S. pneumoniae D39V [1] (first compound 1 µg/mL, partner 0.1 µg/mL); 0 in the test on S. pneumoniae D39V [1] (first compound 1 µg/mL, partner 0.2 µg/mL, one replicate). Further, the Bliss interaction score was 0.0845 with B. subtilis 168, -0.0908 with S. aureus DSM 20231, -0.029 with S. aureus Newman and -0.058 with S. pneumoniae D39V [2].
`CC1(C)S[C@@H]2[C@H](NC(=O)Cc3ccccc3)C(=O)N2[C@H]1C(=O)O` [PenicillinG] + CN[C@@H]1[C@H](O[C@H]2[C@H](O[C@H]3[C@H](O)[C@@H](O)[C@H](N=C(N)N)[C@@H](O)[C@@H]3N=C(N)N)O[C@@H](C)[C@]2(O)C=O)O[C@@H](CO)[C@H](O)[C@H]1O [Streptomycin]: the Bliss interaction score with B. subtilis 168 was 0.0319; in the test on S. aureus DSM 20231, -0.0333; in the test on S. aureus Newman it was -0.0403; with S. pneumoniae D39V [2], -0.119.
Turning to `CC1(C)S[C@@H]2[C@H](NC(=O)Cc3ccccc3)C(=O)N2[C@H]1C(=O)O` [PenicillinG] + CN[C@H](CC(C)C)C(=O)N[C@H]1C(=O)N[C@@H](CC(N)=O)C(=O)N[C@H]2C(=O)N[C@H]3C(=O)N[C@H](C(=O)N[C@H](C(=O)O)c4cc(O)cc(O)c4-c4cc3ccc4O)[C@H](O)c3ccc(c(Cl)c3)Oc3cc2cc(c3O[C@@H]2O[C@H](CO)[C@@H](O)[C@H](O)[C@H]2O[C@H]2C[C@](C)(N)[C@H](O)[C@H](C)O2)Oc2ccc(cc2Cl)[C@H]1O [Vancomycin], the Bliss interaction score in the test on B. subtilis 168 was -0.039; with S. aureus DSM 20231 it was -0.0205; in the test with S. aureus Newman, 0.0603; in the test on S. pneumoniae D39V [2] it was -0.162.
In the same order, the values of `CC1(C)S[C@@H]2[C@H](NC(=O)Cc3ccccc3)C(=O)N2[C@H]1C(=O)O` [PenicillinG] + CO[C@H]1/C=C/O[C@@]2(C)Oc3c(C)c(O)c4c(O)c(c(/C=N/N5CCN(C)CC5)c(O)c4c3C2=O)NC(=O)/C(C)=C\C=C\[C@H](C)[C@H](O)[C@@H](C)[C@@H](O)[C@@H](C)[C@H](OC(C)=O)[C@@H]1C [Rifampicin] are 0.0761, 0.036, 0.0252 and -0.112.
As to `CC1(C)S[C@@H]2[C@H](NC(=O)Cc3ccccc3)C(=O)N2[C@H]1C(=O)O` [PenicillinG] + COc1cc(Cc2cnc(N)nc2N)cc(OC)c1OC [Trimethoprim], the Bliss interaction score in the test with B. subtilis 168 is -0.131; with S. aureus DSM 20231 it was -0.0299; in the test with S. aureus Newman, -0.0822; in the test with S. pneumoniae D39V [2] it was 0.101.
The matching figures for `CC1(C)S[C@@H]2[C@H](NC(=O)Cc3ccccc3)C(=O)N2[C@H]1C(=O)O` [PenicillinG] + COc1ccc(C[C@H](N)C(=O)N[C@H]2[C@@H](O)[C@H](n3cnc4c(N(C)C)ncnc43)O[C@@H]2CO)cc1 [Puromycin]: 0.0536, -0.0369, 0.0759 and 0.0834.
For `CC1(C)S[C@@H]2[C@H](NC(=O)Cc3ccccc3)C(=O)N2[C@H]1C(=O)O` [PenicillinG] + Cc1cc(NS(=O)(=O)c2ccc(N)cc2)no1 [Sulfamethoxazol], the Bliss interaction score was 0.0445 with B. subtilis 168, -0.0626 in the test on S. aureus DSM 20231, 0.0475 in the test with S. aureus Newman and -0.0954 in the test with S. pneumoniae D39V [2].
As for `CC1(C)S[C@@H]2[C@H](NC(=O)Cc3ccccc3)C(=O)N2[C@H]1C(=O)O` [PenicillinG] + Cn1nnc(-c2ccc(-c3ccc(N4C[C@H](CO)OC4=O)cc3F)cn2)n1 [Tedizolid], the Bliss interaction score in the test on B. subtilis 168 is 0.0625; in the test with S. aureus DSM 20231, 0.057; in the test on S. aureus Newman, -0.0888; with S. pneumoniae D39V [2] it was 0.106.
In the same order, the values of `CC1(C)S[C@@H]2[C@H](NC(=O)Cc3ccccc3)C(=O)N2[C@H]1C(=O)O` [PenicillinG] + Oc1cc(Cl)ccc1Oc1ccc(Cl)cc1Cl [Triclosan] are 0.0307, 0.0254, 0.0326 and 0.0767.
The matching figures for `COc1ccc(C[C@H](N)C(=O)N[C@H]2[C@@H](O)[C@H](n3cnc4c(N(C)C)ncnc43)O[C@@H]2CO)cc1` [Puromycin] + CC[C@H]1OC(=O)[C@H](C)C(=O)[C@H](C)[C@@H](O[C@@H]2O[C@H](C)C[C@H](N(C)C)[C@H]2O)[C@](C)(OC)C[C@@H](C)C(=O)[C@H](C)[C@H]2N(CCCCn3cnc(-c4cccnc4)c3)C(=O)O[C@]12C [Telithromycin]: 0.0276, 0.045, -0.0571 and -0.0651.
The matching figures for `COc1ccc(C[C@H](N)C(=O)N[C@H]2[C@@H](O)[C@H](n3cnc4c(N(C)C)ncnc43)O[C@@H]2CO)cc1` [Puromycin] + Oc1cc(Cl)ccc1Oc1ccc(Cl)cc1Cl [Triclosan]: 0.0476, 0.0973, 0.0281 and 0.102.
For the compound `CN(C)c1cc(NC(=O)CNC(C)(C)C)c(O)c2c1C[C@H]1C[C@H]3[C@H](N(C)C)C(O)=C(C(N)=O)C(=O)[C@@]3(O)C(O)=C1C2=O` [Tigecycline] + Oc1cc(Cl)ccc1Oc1ccc(Cl)cc1Cl [Triclosan], the Bliss interaction score is 0.0719 in the test with B. subtilis 168, 0.101 in the test with S. aureus DSM 20231, 0.0252 in the test with S. aureus Newman and 0.0471 in the test with S. pneumoniae D39V [2].
